One test deals with brain dopamine receptors. The test can be described thus: Haloperidol receptor binding assay (HRBA), inhibition of 3H-haloperidol binding. To be noted: rat corpus striatum, 0.6 nM 3H-haloperidol, pH 7.7.
The subject of test [1] is apomorphine-induced emesis in dogs. The test can be described thus: Apomorphine emesis assay. To be noted: Canis lupus familiaris, oral, apomorphine hydrochloride 0.1 mg/kg s.c. It counts as in vivo, dog. As for the experimental part:
3. APOMORPHINE EMESIS ASSAY
Method: Dogs, unsegregated with respect to breed or sex, are used. They are fasted for 16 hours prior to the administration of the test compound. The test compounds are given orally by stomach tube at intervals prior to a subcutaneous injection of 0.1 mg/kg of apomorphine hydrochloride. The dogs are observed for changes in behavior or signs of neuropharmacologic action during the period between drugs and the emetic. After the apomorphine injection the frequency of vomiting episodes is recorded.
The number of dogs vomiting per total number tested, the number of vomiting episodes for each dog, and the average number of episodes are reported for dogs treated with the test compound and dogs treated with vehicle.
The drug is rated as being active if no vomiting episodes are seen in 50 percent or more of the dogs tested.

The next test concerns the target Dopamine D2 receptor (Rattus norvegicus, UniProt P61169). As to the kind of experiment: Affinity for dopamine D2 receptors in rat brain membranes. In kind it is binding.
A further test addresses T1, Histamine H1 receptor (Rattus norvegicus, UniProt P31390).
T1 construct: Histamine H1 Receptors in Rat Brain Membranes; from tissue; host or cells: rat brain membranes
As to the kind of experiment: Affinity for histamine H1 receptors in rat brain membranes. To be noted: rat brain membranes; read-out: Receptor Ki, Histamine H1. In kind it is binding. An excerpt:
(§1) for Dopamine D2, Muscarinic, and
(§2) Histamine H1 Receptors in Rat Brain Membranes
*Tran V. T., Lebovitz, R., Toll, L., and Snyder, S. H.: [^3 H]Doxepin
interactions with histamine H1 -receptors in guinea pig and rat brai

For test [2], the target named is muscarinic cholinergic receptors. It counts as binding. As to conditions: rat brain homogenate, [3H]QNB, 25° C., pH 7.4; read-out: MRBA IC50.
The target of test [3] is Muscarinic Cholinergic receptor. The test can be described thus: Affinity for muscarinic cholinergic receptors in rat brain membranes. It counts as binding. As for the experimental part:
This test uses the displacement of [^3 H] quinuclidinyl benzilate ([^3 H]QNB) from specific muscarinic cholinergic receptors in the rat brain to measure in vitro anticholinergic activity of compounds. […]. A Long-Evans male rat weighing 180-200 grams is routinely used. The brain tissue homogenate along with appropriate concentrations of test compounds and [^3 H]QNB is incubated for one hour at 25° C. in a buffer medium of 50 mM Na-K PO4 pH 7.4. The material is filtered and washed on a millipore filter using Whatman GF/B filters. The filters are counted on a scintillation spectrophotometer. A maximal displacement by 0.1 mM oxotremorine is used to determine how much of the total binding is specific for muscarinic receptors.
Results: The results are reported as percent inhibition of total specific binding. Reference: Yamamura, Henry L. and Snyder, Solomon H. (1974). Muscarinic Cholinergic Binding in Rat Brain Proc. Nat. Acad. Sci. USA Vol 71 No. 5 pp. 1725-1729 May 1974.
as §1, §2

Structures can show the parent of a compound that is named as a salt.

T1 sequence (P31390 whole entry): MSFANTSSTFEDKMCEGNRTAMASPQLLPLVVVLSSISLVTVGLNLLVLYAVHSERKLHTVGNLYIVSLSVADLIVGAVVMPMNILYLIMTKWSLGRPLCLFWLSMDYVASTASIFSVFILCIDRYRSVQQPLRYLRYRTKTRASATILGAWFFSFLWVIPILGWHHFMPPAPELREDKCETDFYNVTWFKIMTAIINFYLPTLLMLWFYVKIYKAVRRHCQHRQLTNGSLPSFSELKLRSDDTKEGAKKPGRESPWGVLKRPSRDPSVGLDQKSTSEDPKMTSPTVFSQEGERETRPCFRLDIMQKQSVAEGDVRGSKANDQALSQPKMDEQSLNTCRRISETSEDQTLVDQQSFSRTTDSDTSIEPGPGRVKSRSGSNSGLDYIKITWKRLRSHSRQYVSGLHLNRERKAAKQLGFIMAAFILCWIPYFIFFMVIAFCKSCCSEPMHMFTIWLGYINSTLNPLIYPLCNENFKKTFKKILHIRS
Dopamine D2 receptor, sequence (P61169 whole entry): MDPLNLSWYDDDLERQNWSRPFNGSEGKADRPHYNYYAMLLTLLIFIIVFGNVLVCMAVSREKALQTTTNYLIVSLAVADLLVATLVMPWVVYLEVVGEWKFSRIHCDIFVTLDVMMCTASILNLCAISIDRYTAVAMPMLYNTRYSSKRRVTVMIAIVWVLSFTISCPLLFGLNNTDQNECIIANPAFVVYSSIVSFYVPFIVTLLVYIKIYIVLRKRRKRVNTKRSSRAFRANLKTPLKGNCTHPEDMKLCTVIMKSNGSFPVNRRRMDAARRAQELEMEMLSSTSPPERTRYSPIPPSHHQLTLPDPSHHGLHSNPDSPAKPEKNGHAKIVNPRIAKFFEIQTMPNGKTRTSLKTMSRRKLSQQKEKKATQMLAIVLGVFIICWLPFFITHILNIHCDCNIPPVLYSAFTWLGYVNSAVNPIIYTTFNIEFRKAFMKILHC

For `c1ccc(C(=C2CCN(CCN3CCOCC3)CC2)c2ccccc2)cc1` [Compound 1, Morpholine, 4-[2-[4-(diphenylmethylene)-1-piperidinyl]ethyl], dihydrochloride], the concentration for half-maximal inhibition (IC50) was 29 nM on brain dopamine receptors and 148 nM in test [2]. The same compound came in with an ED50 in test [1] of about 5 mg/kg. Further, the values for the inhibition constant (Ki) (on Dopamine D2 receptor; at Histamine H1 receptor; in test [3]) were 31 nM, 20 nM and 32 nM, respectively.

A word on the IC50: it is the concentration that inhibits the measured activity by half. In general, ED50 refers to the midpoint of the dose-response relation. Low values mean greater potency, high ones weaker potency. For orientation: Ki means the equilibrium dissociation constant of an inhibitor or competing ligand from its target.

Source of the values: patent publication US4584301A, “Diphenylmethylene piperidines, compositions and methods of use” (Warner-Lambert Company, priority 1985, dated 1986).
